The text below walks through data of ChEMBL document CHEMBL5357015, “Synthesis, Antiacetylcholinesterase Activity, and Molecular Dynamics Simulation of Aporphine-benzylpyridinium Conjugates” (ACS Med Chem Lett, 2024).

Structures can show the parent of a compound that is named as a salt.

Series [1] addresses Acetylcholinesterase (Electrophorus electricus) (UniProt O42275). The series is described as follows: Inhibition of electric eel AChE using acetylthiocholine iodide as substrate at 10 uM preincubated for 20 mins followed by substrate addition and measured every 20 secs for 3 mins by Ellman's method relative to control. To be noted: time 23.0 min.
Series [2] in a line: Selectivity index, ratio of IC50 for horse serum BuChE using butyrylthiocholine iodide as substrate to IC50 for electric eel AChE using acetylthiocholine iodide as substrate.
The target in series [3] is T1, Acetylcholinesterase (Electrophorus electricus, UniProt O42275). The series is described as follows: Inhibition of electric eel AChE using acetylthiocholine iodide as substrate preincubated for 20 mins followed by substrate addition and measured every 20 secs for 3 mins by Ellman's method. (DTNB colorimetry detects thiols as they appear.)
T1 sequence (O42275 whole entry): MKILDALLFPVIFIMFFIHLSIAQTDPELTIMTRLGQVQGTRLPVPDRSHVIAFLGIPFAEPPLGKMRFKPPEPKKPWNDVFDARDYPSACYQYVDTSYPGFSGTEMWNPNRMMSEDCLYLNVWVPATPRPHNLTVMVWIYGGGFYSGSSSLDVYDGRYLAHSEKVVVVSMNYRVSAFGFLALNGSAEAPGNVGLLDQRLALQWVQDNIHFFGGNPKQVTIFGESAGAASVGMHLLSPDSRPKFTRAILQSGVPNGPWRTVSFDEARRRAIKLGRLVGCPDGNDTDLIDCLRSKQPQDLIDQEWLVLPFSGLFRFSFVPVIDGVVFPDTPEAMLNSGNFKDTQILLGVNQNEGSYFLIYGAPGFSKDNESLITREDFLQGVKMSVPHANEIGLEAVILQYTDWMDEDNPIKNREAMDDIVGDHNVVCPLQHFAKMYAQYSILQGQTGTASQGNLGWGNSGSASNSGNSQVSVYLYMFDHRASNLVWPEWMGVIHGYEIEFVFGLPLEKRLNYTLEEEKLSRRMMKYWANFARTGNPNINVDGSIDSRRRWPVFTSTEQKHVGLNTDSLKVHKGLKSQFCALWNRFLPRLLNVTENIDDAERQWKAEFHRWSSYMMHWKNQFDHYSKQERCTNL
The target of the next series is Cholinesterase (Equus caballus, UniProt P81908). The series is described as follows: Inhibition of horse serum BuChE using butyrylthiocholine iodide as substrate preincubated for 20 mins followed by substrate addition and measured every 20 secs for 3 mins by Ellman's method.
Chain of Cholinesterase (P81908 whole entry): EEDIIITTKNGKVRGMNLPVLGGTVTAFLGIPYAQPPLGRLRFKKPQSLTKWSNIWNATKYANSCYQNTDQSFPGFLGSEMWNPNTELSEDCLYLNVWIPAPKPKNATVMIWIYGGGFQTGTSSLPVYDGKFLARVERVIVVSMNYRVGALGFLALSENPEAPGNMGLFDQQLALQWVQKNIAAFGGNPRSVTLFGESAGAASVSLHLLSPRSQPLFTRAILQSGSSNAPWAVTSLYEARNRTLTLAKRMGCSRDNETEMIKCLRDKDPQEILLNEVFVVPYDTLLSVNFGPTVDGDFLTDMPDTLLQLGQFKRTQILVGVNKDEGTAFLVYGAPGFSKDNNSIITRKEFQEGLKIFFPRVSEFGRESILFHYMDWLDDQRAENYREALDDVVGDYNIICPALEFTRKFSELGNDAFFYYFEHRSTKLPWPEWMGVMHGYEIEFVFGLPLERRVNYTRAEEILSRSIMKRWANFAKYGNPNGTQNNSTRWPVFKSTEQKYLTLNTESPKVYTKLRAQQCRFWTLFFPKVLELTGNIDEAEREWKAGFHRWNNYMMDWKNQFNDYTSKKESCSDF
Series [4] addresses T1, Acetylcholinesterase. The series is described as follows: Binding affinity to electric eel AChE assessed as inhibition constant by Lineweaver-Burk plot analysis.
The nature of series [5]: Lipophilicity, log P of the compound in n-octanol/water by HPLC method. Format: physicochemical.
Another series concerns MRC5. The series is described as follows: Cytotoxicity against human MRC5 cells assessed as reduction in cell viability at 50 ug/ml relative to control. The class given is toxicity, cell-based. To be noted: at 50 µg/mL.
The nature of series [6]: Cytotoxicity against human MRC5 cells assessed as reduction in cell viability. Format: toxicity, cell-based.

Chain of Acetylcholinesterase (Electrophorus electricus) (O42275 24-633 limits assumed): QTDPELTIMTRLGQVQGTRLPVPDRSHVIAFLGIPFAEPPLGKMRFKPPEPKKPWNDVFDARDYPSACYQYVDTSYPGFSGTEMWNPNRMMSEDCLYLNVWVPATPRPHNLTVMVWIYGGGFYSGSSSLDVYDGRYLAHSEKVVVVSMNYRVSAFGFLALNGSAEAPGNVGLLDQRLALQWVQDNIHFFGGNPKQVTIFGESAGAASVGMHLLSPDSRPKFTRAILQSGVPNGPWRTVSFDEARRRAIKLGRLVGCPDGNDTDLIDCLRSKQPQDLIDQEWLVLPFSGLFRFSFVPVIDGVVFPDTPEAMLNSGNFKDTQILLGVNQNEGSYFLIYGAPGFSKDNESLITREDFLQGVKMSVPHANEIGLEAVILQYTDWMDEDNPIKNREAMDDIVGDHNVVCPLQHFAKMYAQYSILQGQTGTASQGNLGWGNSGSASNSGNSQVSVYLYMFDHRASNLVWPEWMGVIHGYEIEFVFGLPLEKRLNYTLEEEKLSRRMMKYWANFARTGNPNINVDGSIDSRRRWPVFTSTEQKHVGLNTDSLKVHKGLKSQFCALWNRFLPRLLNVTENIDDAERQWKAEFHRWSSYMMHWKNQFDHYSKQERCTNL

In series [1], `COc1cc2c3c(cc4ccccc4c3c1OC)N(C(=O)c1cc[n+](Cc3ccccc3)cc1)CC2` showed an inhibition of 69%.
For `COc1cc2c3c(cc4ccccc4c3c1OC)N(C(=O)c1cc[n+](Cc3ccccc3Cl)cc1)CC2`, in series [2], the Ratio IC50 was 0.3. For the same compound, the figures for the IC50 against Acetylcholinesterase [3] and on Cholinesterase were 1.64 µM and 0.44 µM, respectively.
As to `COc1cc2c3c(c1OC)-c1ccccc1C[C@H]3N(C(=O)c1cc[n+](Cc3ccc(F)cc3)cc1)CC2`, the inhibition constant Ki on Acetylcholinesterase [4] turned out to be 6.87 µM. For the same compound, the Ratio IC50 in series [2] turned out to be 1.3. The results for the IC50 at Acetylcholinesterase [3] and on Cholinesterase were 12.2 µM and 15.4 µM, respectively. Moreover, the logP in series [5] was determined as 2.3.
On to `COc1cc2c3c(c1OC)-c1ccccc1CC3N(C(=O)c1cc[n+](Cc3ccccc3Cl)cc1)CC2.[Br-]` (racemic), for which the Activity in the series on MRC5 came to 2.96%. In addition, the Ratio IC50 in series [2] stood at 3.9. In addition, the IC50 amounted to 0.18 µM against Acetylcholinesterase [3] and 0.71 µM at Cholinesterase. For the same compound, in series [5], the log partition coefficient (logP) was 2.36.
On to `COc1cc2c3c(c1OC)-c1ccccc1C[C@H]3N(C(=O)c1cc[n+](Cc3ccccc3)cc1)CC2`, for which the Ki at Acetylcholinesterase [4] turned out to be 2.57 µM. Moreover, the Ratio IC50 in series [2] was 0.7. For the same compound, the IC50 was 7.15 µM at Acetylcholinesterase [3] and 4.95 µM against Cholinesterase. The same compound showed a lipophilicity (logP) in series [5] of 2.2.
In turn, `COc1cc2c3c(c1OC)-c1ccccc1CC3N(C(=O)c1cc[n+](Cc3ccc(Cl)cc3)cc1)CC2` (racemic) displayed an inhibition in series [1] of 31%. In series [5], this compound yielded a logP of 2.67.
Consider `COc1cc2c3c(cc4ccccc4c3c1OC)N(C(=O)c1cc[n+](Cc3ccccc3F)cc1)CC2`, for which, in series [2], the Ratio IC50 came out at 0.1. Further, the half-inhibitory concentration (IC50) at Acetylcholinesterase [3] turned out to be 2.73 µM; against Cholinesterase, 0.28 µM.
As for `COc1cc2c3c(c1OC)-c1ccccc1CC3N(C(=O)c1cc[n+](Cc3ccc(F)cc3)cc1)CC2.[Br-]` (racemic), the Activity in the series with MRC5 worked out at 2.46%. Also, in series [2], the Ratio IC50 is 7. In addition, the IC50 at Acetylcholinesterase [3] came out at 0.66 µM; against Cholinesterase, 4.73 µM. In series [5], this compound registered a lipophilicity (logP) of 2.3.
`COc1cc2c3c(c1OC)-c1ccccc1CC3N(C(=O)c1ccncc1)CC2` (racemic) gave an inhibition in series [1] of 5%.
As to `COc1cc2c3c(cc4ccccc4c3c1OC)N(C(=O)c1ccncc1)CC2`, the inhibition in series [1] worked out at 16%.
In the case of `COc1cccc2c1C(=O)c1c(O)c3c(c(O)c1C2=O)C[C@@](O)(C(=O)CO)C[C@@H]3O[C@H]1C[C@H](N)[C@H](O)[C@H](C)O1` [DOXORUBICIN HYDROCHLORIDE], the 50% inhibitory concentration (IC50) in series [6] came to 1.54 µg/mL.
For `COc1cc2c3c(c1OC)-c1ccccc1CC3N(C(=O)c1cc[n+](Cc3cccc(Cl)c3)cc1)CC2` (racemic), in series [2], the Ratio IC50 was 0.5. The IC50 turned out to be 2.15 µM on Acetylcholinesterase [3] and 0.96 µM against Cholinesterase. In addition, the log partition coefficient (logP) in series [5] turned out to be 2.62.
In the case of `COc1cc2c3c(c1OC)-c1ccccc1C[C@@H]3N(C(=O)c1cc[n+](Cc3ccccc3)cc1)CC2`, on Acetylcholinesterase [4], the Ki was 0.17 µM. Further, the Ratio IC50 in series [2] came out at 40.8. Besides, the 50% inhibitory concentration (IC50) came out at 0.12 µM at Acetylcholinesterase [3] and 4.9 µM at Cholinesterase. This compound displayed a log partition coefficient (logP) in series [5] of 2.2.
Consider `COc1cc2c3c(c1OC)-c1ccccc1C[C@@H]3N(C(=O)c1cc[n+](Cc3ccc(F)cc3)cc1)CC2`, for which the Ki on Acetylcholinesterase [4] was 0.27 µM. The Ratio IC50 in series [2] is 23.2. The IC50 at Acetylcholinesterase [3] worked out at 0.37 µM; on Cholinesterase, 8.58 µM. In series [5], the logP was found to be 2.3.
With `COc1cc2c3c(cc4ccccc4c3c1OC)NCC2`, the inhibition in series [1] came to 12%.
For `COc1cc2c3c(c1OC)-c1ccccc1CC3N(C(=O)c1cc[n+](Cc3cccc(F)c3)cc1)CC2` (racemic), the Ratio IC50 in series [2] turned out to be 3. Besides, the figures for the IC50 on Acetylcholinesterase [3] and at Cholinesterase were 0.45 µM and 1.34 µM, respectively.
Taken in the same sequence, the figures for `COc1cc2c3c(c1OC)-c1ccccc1CC3N(C(=O)c1cc[n+](Cc3ccccc3F)cc1)CC2` (racemic) were 3.3, 0.41 µM and 1.37 µM.
Turning to `COc1cc2c3c(c1OC)-c1ccccc1CC3N(C(=O)c1cc[n+](Cc3c(F)cccc3F)cc1)CC2` (racemic), the Ratio IC50 in series [2] was determined as 1.2. The half-maximal inhibitory concentration (IC50) was 0.8 µM against Acetylcholinesterase [3] and 0.97 µM at Cholinesterase. Moreover, the logP in series [5] came out at 2.08.
`COc1cc2c3c(c1OC)-c1ccccc1C[C@H]3N(C(=O)c1cc[n+](Cc3ccccc3Cl)cc1)CC2.[Br-]`: the Ki at Acetylcholinesterase [4] stood at 1.65 µM. The Activity with MRC5 is reported as 5.3%. Moreover, the Ratio IC50 in series [2] is 0.8. The results for the IC50 on Acetylcholinesterase [3] and on Cholinesterase were 2.94 µM and 2.49 µM, respectively. The lipophilicity (logP) in series [5] was 2.36.
For the compound `COc1cc2c3c(c1OC)-c1ccccc1C[C@@H]3N(C(=O)c1cc[n+](Cc3ccccc3Cl)cc1)CC2.[Br-]`, the Ki at Acetylcholinesterase [4] was found to be 0.22 µM. Further, in the series on MRC5, the Activity is given as 5.03%. Also, the Ratio IC50 in series [2] was 30.3. The figures for the half-maximal inhibitory concentration (IC50) against Acetylcholinesterase [3] and against Cholinesterase were 0.06 µM and 1.82 µM, respectively. Moreover, in series [5], the logP was found to be 2.36.
Turning to `COc1cc2c3c(c1OC)-c1ccccc1CC3N(C(=O)c1cc[n+](Cc3ccccc3)cc1)CC2.[Br-]` (racemic), the Activity in the series with MRC5 is 3.62%. Further, the Ratio IC50 in series [2] was 3.8. Moreover, the figures for the IC50 at Acetylcholinesterase [3] and against Cholinesterase were 0.35 µM and 1.33 µM, respectively. The log partition coefficient (logP) in series [5] amounted to 2.2.
As for `COc1cc2c3c(c1OC)-c1ccccc1CC3N(C(=O)c1cc[n+](Cc3cccc(F)c3F)cc1)CC2` (racemic), in series [2], the Ratio IC50 was 2. Also, the IC50 against Acetylcholinesterase [3] is 0.75 µM; against Cholinesterase, 1.54 µM.

Usually inhibition stands for the change of the read-out against control, counted positive when it falls. In general, IC50 refers to the midpoint of a concentration-inhibition curve. As usually defined, the Ki is a measure of affinity in units of concentration, obtained from inhibition or displacement. For orientation: logP means the decadic logarithm of the partition coefficient of the neutral form, usually between octanol and water. A lower logP goes with lower lipophilicity.
